# In patent publication US6043248A, “Alpha-substituted pyrimidine-thioalkyl and alkylether compounds as inhibitors of viral reverse transcriptase” (priority 1997, dated 2000):
# Experiments:
# [1] = molecular target: T1, P236L viral reverse transcriptase (Human immunodeficiency virus type 1 group M subtype B, UniProt P04585, P823L); experiment: inhibition of viral reverse transcriptase (P236L), cell free assay; type: biochemical; settings: IC50 (Table I, P236L), 30 minutes at 37° C.
# T1 construct: P236L viral reverse transcriptase is obtained by PNAS 90: 4713-4717 (1993); made in house
# Method in brief: (§1)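 E. coli-expressed wild-type or P236L RT extracts incubated with inhibitor 30 min at 37 °C in Tris pH 8.3 with MgCl₂, NaCl, DTT, NP-40, 10 μM [35S]-dNTP, poly rC/rG template and oligo dG/dT primer. Incorporated label counted on DE81 paper; reported as % inhibition and/or IC50.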
# [2] = molecular target: T2, viral reverse transcriptase (Wild Type) (Human immunodeficiency virus type 1 group M subtype B, UniProt P04585); experiment: inhibition of viral reverse transcriptase (Wild Type), cell free assay; type: biochemical; settings: 30 minutes at 37° C., read-out: IC50 (Table II, Wild Type)
# T2 construct: Viral reverse transcriptase (Wild Type) is found in extracts from bacterial clones; made in house; host or cells: Escherichia coli
# Method in brief: as §1
smiles,measurement,setting,value
"CC(C)COc1ccc(C(C)Sc2nc(N)cc(Cl)n2)nc1Cl (centres unmarked) [Example 307, 4-amino-6-chloro-2-(((5-isobutoxy-6-chloro)-2-pyridyl)-ethyl)thio-pyrimidine]",IC50,[1],1 µM
same,IC50,[2],5 µM
